Among the data in patent US9725414B2, “Fungicidal N-bicycloalkyl and N-tricycloalkyl pyrazole-4-(thio)carboxamide derivatives” (priority 2011, dated 2017) are Efficacy and logP values, retold here.

One data set deals with Alternaria solani. As to the kind of experiment: Example C: in vivo preventive test on Alternaria solani (tomato). Particulars: 500 ppm of active ingredient, evaluated 7 days after inoculation. As for the experimental part:
(§1) In Vivo Preventive Test on Alternaria solani (Tomato) Solvent: 49 parts by weight of N,N-dimethylformamide Emulsifier: 1 part by weight of alkylarylpolyglycolether To produce a suitable preparation of active compound, 1 part by weight of active compound is mixed with the stated amounts of solvent and emulsifier, and the concentrate is diluted with water to the desired concentration. To test for preventive activity, young plants are sprayed with the preparation of active compound at the stated rate of application. One day after this treatment, the plants are inoculated with an aqueous spore suspension of Alternaria solani. The plants remain for one day in an incubation cabinet at approximately 22° C. and a relative atmospheric humidity of 100%. Then the plants are placed in an incubation cabinet at approximately 20° C. and a relative atmospheric humidity of 96%.

Data set [1] relates to Pyrenophora teres. As to the kind of experiment: Example E: in vivo preventive test on Pyrenophora teres (barley), DMF/emulsifier preparation. Particulars: 500 ppm of active ingredient, evaluated 7-9 days after inoculation. As for the experimental part:
as §1, with “Pyrenophora teres (Barley)” for “Alternaria solani (Tomato)”, “alkylaryl polyglycol ether” for “alkylarylpolyglycolether”, “Pyrenophora teres.” for “Alternaria solani.”, “48 hours” for “one day”, “at” for “at approximately”, “100%.” for “100%. Then the plants are placed in an incubation cabinet at approximately 20° C. and a relative atmospheric humidity of 96%.”

Data set [2] has as its system Sphaerotheca fuliginea. As to the kind of experiment: Example A: in vivo preventive test on Sphaerotheca fuliginea (cucumber). Particulars: 500 ppm of active ingredient, evaluated 7 days after inoculation. As for the experimental part:
In Vivo Preventive Test on Sphaerotheca fuliginea (Cucumber) Solvent: 49 parts by weight of N,N-dimethylformamide Emulsifier: 1 part by weight of alkylarylpolyglycolether To produce a suitable preparation of active compound, 1 part by weight of active compound is mixed with the stated amounts of solvent and emulsifier, and the concentrate is diluted with water to the desired concentration. To test for preventive activity, young plants are sprayed with the preparation of active compound at the stated rate of application. One day after this treatment, the plants are inoculated with an aqueous spore suspension of Sphaerotheca fuliginea. Then the plants are placed in a greenhouse at approximately 23° C. and a relative atmospheric humidity of approximately 70%.

In another data set the test system is Uromyces appendiculatus. Put plainly: Example Q: in vivo preventive test on Uromyces appendiculatus (bean rust). The following applies: Uromyces appendiculatus on bean plants, 500 ppm of active ingredient, grading 11 days after contamination. As for the experimental part: In Vivo Preventive Test on Uromyces appendiculatus (Bean Rust) […] Bean plants (“Saxa” variety), sown in starter cups on a 50/50 peat soil pozzolana substrate and grown at 24° C., are treated at the 2 leaf stage (9 cm height) by spraying with the active ingredient prepared as described above. Plants, used as controls, are treated with the mixture of acetone/tween/DMSO/water not containing the active material. After 24 hours, the plants are contaminated by spraying the leaves with an aqueous suspension of Uromyces appendiculatus spores (150 000 spores per mL). The spores are collected from infected plants and are suspended in water containing 2.5 mL/L of Tween 80 at 10%. […] Grading (% of efficacy) is carried out 11 days after the contamination, in comparison with the control plants.

Data set [3] can be described thus: log P by HPLC on reversed-phase column (C 18), EEC Directive 79831 Annex V.A8. It is filed as physicochemical. Particulars: HPLC reversed-phase C 18, 40° C., 0.1% aqueous formic acid and acetonitrile gradient; several values = mixture of two or more isomers. In outline: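 Reversed-phase C18 HPLC at 40° C, 0.1% aqueous formic acid/acetonitrile linear gradient 10% to 90% acetonitrile, per EEC Directive 79831 Annex V.A8. log P obtained from retention time by linear interpolation between unbranched alkan-2-ones (C3-C16) of known log P.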

The test system of data set [4] is Pyrenophora teres. As to the kind of experiment: Example F: in vivo preventive test on Pyrenophora teres (barley), acetone/tween/DMSO preparation. Particulars: 500 ppm of active ingredient, barley, grading 14 days after contamination. The method in brief: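 Barley ("Plaisant") grown at 22° C was sprayed at the 1-leaf stage (10 cm) with active ingredient in acetone/tween/DMSO/water, with solvent-only controls. After 24 h, leaves were inoculated with Pyrenophora teres spores (12 000 spores per mL) from 12-day cultures. % efficacy versus controls graded 14 days post-contamination.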

Another data set has as its system Alternaria brassicae. Put plainly: Example D: in vivo preventive test on Alternaria brassicae (leaf spot on radish). Particulars: 500 ppm of active ingredient, grading 6 days after contamination. As for the experimental part:
In Vivo Preventive Test on Alternaria brassicae (Leaf Spot on Radish) […] Radish plants (“Pernod Clair” variety), sown in starter cups on a 50/50 peat soil pozzolana substrate and grown at 17° C., are treated at the cotyledon stage by spraying with the active ingredient prepared as described above. Plants, used as controls, are treated with the mixture of acetone/tween/DMSO/water not containing the active material. After 24 hours, the plants are contaminated by spraying the cotyledons with an aqueous suspension of Alternaria brassicae spores (50 000 spores per mL). The spores are collected from a 15-day-old culture. The contaminated radish plants are incubated at 20° C. and at 100% relative humidity. Grading (% of efficacy) is carried out 6 days after the contamination, in comparison with the control plants.

Data set [5] deals with Sphaerotheca fuliginea. Put plainly: Example B: in vivo preventive test on Sphaerotheca fuliginea (powdery mildew on cucurbits), gherkin plants. The following applies: 500 ppm of active ingredient, grading 12 days after contamination. In outline: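 Gherkin plants grown at 24 °C were sprayed with compound at the Z11 cotyledon stage; controls received acetone/tween/DMSO/water without active. 24 h later, cotyledons were inoculated by spraying with Sphaerotheca fuliginea spores (100 000 spores per mL).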

The subject of a further data set is Septoria tritici. Put plainly: Example I: in vivo preventive test on Septoria tritici (wheat), acetone/tween/DMSO preparation. Particulars: 500 ppm of active ingredient, grading 24 days after contamination. In outline:
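Scipion wheat grown at 22° C, sprayed at 1-leaf stage (10 cm); controls received acetone/tween/DMSO/water without active. Inoculated 24 h later with S. tritici spores (500 000/mL), held 72 h at 18° C, 100% RH, then 21 days at 90% RH. % efficacy vs controls scored 24 days post-inoculation.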

For the next data set, the system named is Botrytis cinerea. Put plainly: Example P: in vivo preventive test on Botrytis cinerea (grey mould), gherkin plants. Particulars: 500 ppm of active ingredient, grading 4 to 5 days after contamination. As for the experimental part: In Vivo Preventive Test on Botrytis cinerea (Grey Mould) […] Gherkin plants (“Vert petit de Paris” variety), sown in starter cups on a 50/50 peat soil pozzolana substrate and grown at 24° C. are treated at the Z11 cotyledon stage by spraying with the active ingredient prepared as described above. Plants, used as controls, are treated with the mixture of acetone/tween/DMSO/water not containing the active material. After 24 hours, the plants are contaminated by spraying the cotyledons with an aqueous suspension of cryopreserved Botrytis cinerea spores (50 000 spores per mL). The spores are suspended in a nutrient solution composed of 10 g/L of PDB, 50 g/L of D-Fructose, 2 g/L of NH4NO3 and 1 g/L of KH2PO4. The contaminated gherkin plants are incubated at 17° C. and at 90% relative humidity. Grading (% of efficacy) is carried out 4 to 5 days after the contamination, in comparison with the control plants.

For another data set, the system named is Puccinia recondita. As to the kind of experiment: Example M: in vivo preventive test on Puccinia recondita (brown rust on wheat). The following applies: 500 ppm of active ingredient, grading 12 days after contamination. The method in brief: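 Wheat (Scipion) sprayed with compound at 1-leaf stage, grown at 22° C. Inoculated 24 h later with a spore suspension at 100 000 spores per mL. Efficacy (%) graded 12 days after inoculation against solvent-treated controls.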

`CCc1nn(C)c(F)c1C(=O)N(C1CC1)C(C)C1CC2CCC1C2` (mixture of isomers) [Example 95]: the Efficacy with Alternaria solani was determined as 100%; in the data set with Pyrenophora teres [1] it was 100%; with Sphaerotheca fuliginea [2], 95%.

Take `Cn1cc(C(=O)N(CC2(Cc3ccccc3)CC3CCC2C3)C2CC2)c(C(F)F)n1` (stereo not shown) [Example 70]: the Efficacy with Uromyces appendiculatus was found to be 88%; in the data set with Pyrenophora teres [4] it was 79%; in the data set on Alternaria brassicae, 91%; in the data set on Sphaerotheca fuliginea [5], 98%; with Septoria tritici, 96%; with Botrytis cinerea, 100%. In addition, the logP in [3] was found to be 4.32.

For the molecule `Cn1cc(C(=O)N(C2CC2)C2CCC3CCCC32)c(C(F)F)n1` (stereo not shown) [Example 6], the Efficacy was 77% in the data set with Uromyces appendiculatus; 100% with Pyrenophora teres [4]; 100% in the data set on Alternaria brassicae; 100% in the data set on Sphaerotheca fuliginea [5]; 100% with Botrytis cinerea. Also, the logP in data set [3] came to 3.02.

Take `Cc1nn(C)c(F)c1C(=S)N(C1CC1)C(C)C1CC2CCC1C2` (stereo not shown) [Example 98]: the figures for the Efficacy with Alternaria solani, with Pyrenophora teres [1] and with Sphaerotheca fuliginea [2] were 95%, 100% and 93%, respectively. Besides, the logP in [3] amounted to 4.34.

As to `Cn1nc(C(F)F)c(C(=O)N(CC2CCCC3CCCCC32)C2CC2)c1F` (stereo not shown) [Example 65], the Efficacy in the data set with Uromyces appendiculatus, with Pyrenophora teres [4], in the data set with Alternaria brassicae, in the data set on Puccinia recondita, with Sphaerotheca fuliginea [5] and in the data set with Septoria tritici was 100% each time. In addition, the Efficacy with Botrytis cinerea turned out to be 100%. Besides, in data set [3], the logP turned out to be 4.90.

As to `Cn1cc(C(=O)N(CC2CCCC3CCCCC32)C2CC2)c(C(F)F)n1` (stereo not shown) [Example 66], the Efficacy in the data set on Uromyces appendiculatus was 88%; in the data set with Pyrenophora teres [4], 100%; in the data set on Alternaria brassicae, 96%; in the data set with Puccinia recondita, 94%; in the data set on Sphaerotheca fuliginea [5], 100%; in the data set on Septoria tritici, 100%. Also, the Efficacy in the data set with Botrytis cinerea is reported as 99%. For the same molecule, the logP in [3] is 4.37.

With `Cn1nc(C(F)F)c(C(=O)N(C2CC2)C2CCC3CCCC3C2)c1F` (mixture of isomers) [Example 22], the Efficacy is recorded as 100% with Alternaria solani; 100% with Uromyces appendiculatus; 100% in the data set with Pyrenophora teres [1]; 93% in the data set with Alternaria brassicae; 100% in the data set on Puccinia recondita; 100% in the data set on Sphaerotheca fuliginea [5]. In the data set with Septoria tritici, this molecule came in with an Efficacy of 88%.

For the molecule `Cc1nn(C)c(F)c1C(=O)N(C1CC1)C(C)C1CC2CCC1C2` (stereo not shown) [Example 96], the values for the Efficacy with Alternaria solani, in the data set with Pyrenophora teres [1] and in the data set on Sphaerotheca fuliginea [2] were 100%, 100% and 95%, respectively. Moreover, the logP in data set [3] worked out at 3.46.

As for `CC(C1CC2C=CC1C2)N(C(=O)c1cn(C)nc1C(F)F)C1CC1` (mixture of isomers) [Example 102], the Efficacy in the data set with Uromyces appendiculatus turned out to be 92%; in the data set on Pyrenophora teres [4] it was 100%; with Alternaria brassicae it was 92%; in the data set on Puccinia recondita, 90%; with Sphaerotheca fuliginea [5], 100%; in the data set with Septoria tritici it was 75%. This molecule returned an Efficacy with Botrytis cinerea of 95%.

Consider `Cn1nc(C(F)F)c(C(=O)NC2CCCC3CCCCC32)c1F` (stereo not shown) [Example 25], for which the Efficacy is listed as 100% with Alternaria solani; 80% in the data set with Uromyces appendiculatus; 95% in the data set on Pyrenophora teres [1]; 86% in the data set on Pyrenophora teres [4]; 100% in the data set with Puccinia recondita; 100% in the data set with Sphaerotheca fuliginea [5]. Besides, the values for the Efficacy in the data set on Sphaerotheca fuliginea [2] and in the data set on Septoria tritici were 88% and 96%, respectively. Also, the logP in data set [3] worked out at 3.60.

Take `Cn1nc(C(F)F)c(C(=O)NC2CCC3CCCC32)c1Cl` (stereo not shown) [Example 3]: the Efficacy in the data set on Uromyces appendiculatus was 100%; with Alternaria brassicae, 90%; in the data set on Puccinia recondita, 75%; with Septoria tritici it was 92%; with Botrytis cinerea it was 95%. Also, the logP in data set [3] is on record as 3.09.

In the case of `CC1C(CN(C(=O)c2cn(C)nc2C(F)F)C2CC2)CC2CC1C2(C)C` (stereo not shown) [Example 78], the values for the Efficacy with Alternaria solani, in the data set with Pyrenophora teres [1] and in the data set on Sphaerotheca fuliginea [2] were 100%, 100% and 95%, respectively. The logP in [3] is given as 4.21.

`Cn1nc(C(F)F)c(C(=O)NCC2CCC3CC2C3(C)C)c1Cl` (stereo not shown) [Example 83]: the Efficacy is 95% with Alternaria solani, 100% in the data set on Pyrenophora teres [1] and 90% with Sphaerotheca fuliginea [2]. In addition, the logP in [3] amounted to 3.85.

Regarding `CC1C(CNC(=S)c2c(C(F)F)nn(C)c2F)CC2CC1C2(C)C` (stereo not shown) [Example 82], the Efficacy came out at 90% with Alternaria solani, 95% in the data set on Pyrenophora teres [1] and 93% with Sphaerotheca fuliginea [2]. The logP in data set [3] is 4.82.

Take `CC1C(CN(C(=O)c2c(C(F)F)nn(C)c2F)C2CC2)CC2CC1C2(C)C` (stereo not shown) [Example 77]: the figures for the Efficacy in the data set with Alternaria solani, in the data set with Pyrenophora teres [1] and with Sphaerotheca fuliginea [2] were 95%, 100% and 100%, respectively. In [3], the logP was determined as 4.69.

On to `CC1CC(C)(C)C2CCCC(NC(=S)c3c(C(F)F)nn(C)c3F)C12` (mixture of isomers) [Example 18], for which the Efficacy is recorded as 80% with Alternaria solani, 95% in the data set on Pyrenophora teres [1] and 83% in the data set with Sphaerotheca fuliginea [2].
